Here are results for eleven compounds from patent US12466829B2, “Spirocyclic piperidine melanocortin subtype-2 receptor (MC2R) antagonists and uses thereof” (Crinetics Pharmaceuticals, Inc., priority 2019, dated 2025).

This experiment deals with T1, hMC2 receptor (Homo sapiens, UniProt Q01718).
T1 construct: host or cells: CRE-bla-CHO-K1 cells
T1 sequence (Q01718 whole entry): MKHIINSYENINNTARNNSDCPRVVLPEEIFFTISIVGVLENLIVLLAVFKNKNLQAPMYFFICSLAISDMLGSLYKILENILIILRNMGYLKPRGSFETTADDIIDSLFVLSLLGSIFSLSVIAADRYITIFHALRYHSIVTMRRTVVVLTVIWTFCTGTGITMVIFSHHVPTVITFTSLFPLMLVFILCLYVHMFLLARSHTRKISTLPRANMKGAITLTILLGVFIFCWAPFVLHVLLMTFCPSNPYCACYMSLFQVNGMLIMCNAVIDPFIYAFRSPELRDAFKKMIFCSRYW
T1 sequence (Q8TCY5 whole entry partner): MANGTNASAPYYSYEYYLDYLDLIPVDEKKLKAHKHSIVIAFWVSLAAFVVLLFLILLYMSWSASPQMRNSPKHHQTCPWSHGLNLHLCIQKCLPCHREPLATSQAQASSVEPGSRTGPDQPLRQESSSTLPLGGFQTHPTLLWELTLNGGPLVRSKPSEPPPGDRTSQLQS
Put plainly: hMC2 membrane binding assay ([125I]ACTH (1-39) Tyr23, SPA). To be noted: crude membranes of CRE-bla-CHO-K1 cells expressing hMC2 receptor and hMRAP; 0.2 nM [125I]ACTH (1-39) Tyr23; 1.5 hours at room temperature; read-out: MC2R binding potency. How it is done: Crude membrane fractions are prepared from CRE-bla-CHO-K1 cells stably expressing hMC2 receptor and hMRAP accessory protein (Thermo Fisher). The cells are grown to 85-100% confluence on standard tissue culture dishes in GlutaMax DMEM growth media (Gibco) with following additives: 10% dialyzed FBS (Gemini), 0.1 mM NEAA (Gibco), 25 mM HEPES (Gibco), 5 μg/mL blasticidin (Goldbio), 100 μg/mL zeocin (Invitrogen), 600 μg/mL hygromycin (Goldbio). To prepare membranes, cells are scraped and collected in 1× Dulbecco's phosphate buffered saline (Corning) and then pelleted at 1000 RPM's. The cell pellet is reconstituted in membrane preparation buffer (20 mM HEPES, 6 mM MgCl2 and 1 mM EGTA, protease inhibitor tablets (Pierce) adjusted to pH 7.4), homogenized using a dounce homogenizer, and the resulting membrane fraction is pelleted by centrifugation at 12,000 RPM's. The membrane pellet is resuspended in membrane preparation buffer, snap freezed and stored at −80° C. for later use.
The hMC2 membrane binding assay utilizes the following components: radiolabel [^125I]ACTH (1-39) Tyr23 (PerkinElmer), wheatgerm agglutinin coated PVT SPA beads (PerkinElmer), crude hMC2R membranes, and compounds. Briefly hMC2R membranes are incubated with SPA beads in binding assay buffer (50 mM HEPES, 5 mM MgCl2, 1 mM CaCl2), 0.2% BSA, protease inhibitor tablets (Pierce) adjusted to pH7.4) prior to assay initiation. […] Assay plates are read using a Top Count NXT and Ki values for compounds are determined using a GraphPad Prism 6 non-linear regression analysis.
For `CCOc1ncccc1-c1ccc2c(n1)N(C(=O)NCCNC)CC21CCN(c2ccc(C(F)(F)F)cc2C#N)CC1` [1-59, 1-[2-cyano-4-(trifluoromethyl)phenyl]-6′-(2-ethoxypyridin-3-yl)-N-[2-(methylamino)ethyl]-1′,2′-dihydrospiro[piperidine-4,3′-pyrrolo[2,3-b]pyridine]-1′-carboxamide], the Ki is below 0.01 µM.

With `CCOc1ncccc1-c1ccc2c(n1)N(C(=O)CCN)CC21CCN(c2ccc(C(F)(F)F)cc2C#N)CC1` [1-28, 2-[1′-(3-aminopropanoyl)-6′-(2-ethoxypyridin-3-yl)-1′,2′-dihydrospiro[piperidine-4,3′-pyrrolo[2,3-b]pyridin]-1-yl]-5-(trifluoromethyl)benzonitrile], the Ki was below 0.01 µM.

Regarding `CCOc1ncccc1-c1ccc2c(n1)N(CCN(C)C)C(=O)C21CCN(c2ccc(C(F)(F)F)cc2C#N)CC1` [1-62, 2-{1′-[2-(dimethylamino)ethyl]-6′-(2-ethoxypyridin-3-yl)-2′-oxo-1′,2′-dihydrospiro[piperidine-4,3′-pyrrolo[2,3-b]pyridin]-1-yl}-5-(trifluoromethyl)benzonitrile], the Ki is below 0.01 µM.

With `CCOc1ncccc1-c1ccc2c(n1)N(C(=O)NC[C@H](C)N)CC21CCN(c2ccc(C(F)(F)F)cc2C#N)CC1` [1-56, N-[(2S)-2-aminopropyl]-1-[2-cyano-4-(trifluoromethyl)phenyl]-6′-(2-ethoxypyridin-3-yl)-1′,2′-dihydrospiro[piperidine-4,3′-pyrrolo[2,3-b]pyridine]-1′-carboxamide], the Ki lay within 0.01 to 0.1 µM.

`CCOc1ncccc1-c1ccc2c(c1)N(C[C@@H](C)N)CC21CCN(c2ccc(Cl)cc2C(F)F)CC1` [1-45, (2R)-1-{1′-[4-chloro-2-(difluoromethyl)phenyl]-6-(2-ethoxypyridin-3-yl)-1,2-dihydrospiro[indole-3,4′-piperidin]-1-yl}propan-2-amine]: the Ki is 0.01 to 0.1 µM.

Consider `CCOc1ncccc1-c1ccc2c(c1)N(C(=O)[C@H]1CCNC1)CC21CCN(c2ccc(C(F)(F)F)cc2C#N)CC1` [1-10, 2-[6-(2-ethoxypyridin-3-yl)-1-[(3S)-pyrrolidine-3-carbonyl]-1,2-dihydrospiro[indole-3,4′-piperidin]-1′-yl]-5-(trifluoromethyl)benzonitrile], for which the Ki was 0.01 to 0.1 µM.

For `CCOc1ncccc1-c1ccc2c(c1)N(C(=O)CCN)CC21CCN(c2ccc(C(F)(F)F)cc2C#N)CC1` [1-3, 2-[1-(3-aminopropanoyl)-6-(2-ethoxypyridin-3-yl)-1,2-dihydrospiro[indole-3,4′-piperidin]-1′-yl]-5-(trifluoromethyl)benzonitrile], the Ki fell in the range of 0.01 to 0.1 µM.

Regarding `CCOc1ncccc1-c1ccc2c(n1)N(C(=O)CCNC)CC21CCN(c2ccc(C(F)(F)F)cc2C#N)CC1` [1-50, 2-[6′-(2-ethoxypyridin-3-yl)-1′-[3-(methylamino)propanoyl]-1′,2′-dihydrospiro[piperidine-4,3′-pyrrolo[2,3-b]pyridin]-1-yl]-5-(trifluoromethyl)benzonitrile], the Ki is below 0.01 µM.

As for “2-[1′-(3-aminopropyl)-7′-(2-ethoxypyridin-3-yl)-2′-oxo-2′,3′-dihydro-1′H-spiro[piperidine-4,4′-quinolin]-1-yl]-5-(trifluoromethyl)benzonitrile [1-67]”, the Ki fell in the range of 0.01 to 0.1 µM.

On to `CCOc1ncccc1-c1ccc2c(c1)N(CCN)C(=O)CC21CCN(c2ccc(C(F)(F)F)cc2C#N)CC1` [1-66, 2-[1′-(2-aminoethyl)-7′-(2-ethoxypyridin-3-yl)-2′-oxo-2′,3′-dihydro-1′H-spiro[piperidine-4,4′-quinolin]-1-yl]-5-(trifluoromethyl)benzonitrile], for which the Ki was in the range of 0.01 to 0.1 µM.

Consider `CCOc1ncccc1-c1ccc2c(c1)N([C@@H](C)CN)CC21CCN(c2ccc(C(F)(F)F)cc2C#N)CC1` [1-41, 2-{1-[(2S)-1-aminopropan-2-yl]-6-(2-ethoxypyridin-3-yl)-1,2-dihydrospiro[indole-3,4′-piperidin]-1′-yl}-5-(trifluoromethyl)benzonitrile], for which the Ki is 0.01 to 0.1 µM.
